≈ marks a conversion by molar mass, not a printed value. Like-named read-outs stand apart in the source and are kept apart here. Marks after values point to notes of the source that are not given here.

One data set addresses T1, HIV-1 RT (Human immunodeficiency virus type 1 group M subtype B, UniProt P04585).
T1 construct: Because HIV-1 reverse transcriptase (RT) has a low fidelity; purchased Roche, Basel, Switzerland
Description: HIV RT inhibitory activity, colorimetric Reverse Transcriptase Assay kit (Roche). Type of data set: biochemical. How it is done:
HIV RT inhibitory activity of the new compounds was measured using the colorimetric Reverse Transcriptase Assay kit (Roche, Basel, Switzerland). […] Averaged results from at least two measurements were used to obtain an inhibition curve. IC50 values were obtained by interpolating the curve using non-linear regression.

Data set [1] in a line: Aqueous solubility by weighing dried aliquots. Type of data set: physicochemical. The note with it: ultrapure deionised water, room temperature, pH =7. On the procedure:
Substances were dissolved in ultrapure deionised water at room temperature up to concentrations of 50 g/L. Solutions were centrifuged and their aliquots were transferred into weighed glass vials (d = 0.01 mg). The samples were dried under reduced pressure and the vials were weighed again. The solubility was calculated from mass difference divided by sample volume.

In the next data set the test system is SupT1 cells. Briefly: Cytotoxicity from cell numbers in non-infected SupT1 cultures. The data set is classed as cell-based. The note with it: concentration at which toxicity is observed in 10-fold titration series. How it is done: (§1) CD4^+ T cells were harvested from normal donors and cultured in Roswell Park Memorial Institute medium (RPMI) supplemented with 2 mM L-glutamine (Life Technologies, Merelbeke, Belgium), 10% (v/v) heat-inactivated foetal calf serum (Hyclone, Thermo Fisher Scientific, Waltham, MA), 100 U/mL penicillin and 100 µg/mL streptomycin (Life Technologies), 20 ng/mL interleukin-2 (IL-2; specific activity 10 U/ng, Peprotech, London, UK), and with 1 µg/mL phytohemagglutinin (PHA) mitogen (Thermo Fisher Scientific), 72 h prior to infection, as described earlier. SupT1 cells were maintained at maximum 500,000 cells/mL, in Iscove’s Modified Dulbecco’s Medium (IMDM) supplemented with 2 mM L-glutamine (Life Technologies) and 10% (v/v) heat-inactivated foetal calf serum (Hyclone, Thermo Fisher Scientific, Waltham, MA), as described earlier.
(§2) Lyophilised compound was dissolved in dimethyl sulfoxide to a concentration of 5 mM, and further diluted in cell culture medium (SupT1: IMDM and CD4^+ T cells: RPMI). Cells were incubated 2 h prior infection in appropriate medium as described above, now also supplemented with diluted compound. Subsequently, cells (SupT1: 50,000 per 96 well, CD4^+ T cells: 250,000 per 96 well) were infected with HIV (HIV NL4–3-GFP-I, an infectious virus expressing green fluorescent protein (GFP) from gfp-IRES-nef mRNA expressed from the nef locus, as described earlier. Medium was as described above, now also supplemented with diluted compound (For CD4^+ T cells, PHA was left out). Medium was refreshed after 24 h, keeping compound and supplement concentrations constant. After 72 h, cells were harvested, measured by flow cytometry for GFP expression and counted, using a MACSQuant flow cytometer (Miltenyi Biotec, Bergisch Gladbach, Germany). Infection rate measured by GFP expression was between 6 and 20%. Cell numbers were used to measure cytotoxicity (cell numbers in non-infected cultures supplemented with compound were compared to cell numbers obtained in parallel cultures without compound added: a reduction with more than 10% was considered to indicate cytotoxicity).
First, toxicity of the compounds was determined in SupT1 cells. Since even minor toxicity affects the support of viral replication by the cell, compounds should be active well below threshold toxic concentration (i.e. concentration at which toxicity is observed in 10-fold titration series).

For data set [2], the system named is HIV NL4-3-GFP-I in SupT1 cells. Briefly: Infection assay in SupT1 cells, GFP flow cytometry. Type of data set: cell-based, HIV-1. The conditions noted are these: for Antiviral activity: SupT1 cells, at 10-fold lower concentration than threshold toxic concentration. How it is done: as §1, §2
On the technique in general: In flow cytometry, cells or beads pass a laser one at a time.

The conditions of data set [3]: ref Janssen et al.[15]; cited from earlier work.
Where [4] appears, read: HIV-1 RT, 2 ng enzyme, at least two measurements, read-out: IC50.
[5] abbreviates: thermodynamic from solid, read-out: Solubility.

As a reminder, the IC50 is the concentration needed to halve the response being measured. As a reminder, the Solubility is how much of the substance goes into solution per volume. With `N#Cc1cc(Cl)cc(Oc2cc(OCC(=O)c3ccc(OCC(=O)O)cc3)ccc2Cl)c1` [Compound 7a], the IC50 on HIV-1 RT (setting [4]) turned out to be 1.23 ± 0.05 µM. Further, the Solubility in data set [1] (setting [5]) stood at 13.1 mg/mL (≈ 27.7 mM). Also, in the data set with SupT1 cells, the Threshold toxicity came to 5 µM.

The compound `O=C([O-])COc1ccc(C(=O)COc2ccc(Cl)c(Oc3cc(Cl)cc(Cl)c3)c2)cc1.[K+]` [Compound 7b] returned an IC50 against HIV-1 RT of 6.75 ± 0.5 µM. Also, in data set [1] (setting [5]), the Solubility was found to be 4.3 mg/mL. The compound further came in with a Threshold toxicity in the data set on SupT1 cells of 50 µM. Moreover, the Antiviral activity entry in data set [2] was “+”.

Regarding `N#Cc1cc(Cl)cc(Oc2cc(Cl)cc(OCC(=O)c3ccc(OCC(=O)[O-])cc3)c2)c1.[K+]` [Compound 7c], at HIV-1 RT (setting [4]), the IC50 was determined as 8.3 ± 1.3 µM. In data set [1], this compound came in with a Solubility of over 50.0 mg/mL. Besides, the Threshold toxicity in the data set on SupT1 cells amounted to 50 µM.

As for `N#Cc1cc(Cl)cc(Oc2cccc(OCC(=O)c3ccc(OCC(=O)[O-])cc3)c2)c1.[K+]` [Compound 7d], the IC50 on HIV-1 RT (setting [4]) amounted to 9.78 ± 0.67 µM. The compound further yielded a Solubility in data set [1] of over 50.0 mg/mL. The same compound yielded a Threshold toxicity in the data set on SupT1 cells of 50 µM.

Consider `Cc1cc(OCC(=O)[O-])ccc1C(=O)COc1ccc(Cl)c(Oc2cc(Cl)cc(C#N)c2)c1.[K+]` [Compound 7f], for which the IC50 at HIV-1 RT (setting [4]) was 4.71 ± 0.43 µM. The compound further showed a Solubility in data set [1] of 8.9 mg/mL. In the data set on SupT1 cells, this compound showed a Threshold toxicity of over 50 µM. In addition, in data set [2], the Antiviral activity entry was “+”.

As for `Cc1cc(C(=O)COc2ccc(Cl)c(Oc3cc(Cl)cc(C#N)c3)c2)ccc1OCC(=O)[O-].[K+]` [Compound 7g], at HIV-1 RT (setting [4]), the IC50 turned out to be 0.65 ± 0.03 µM. This compound also had a Solubility in data set [1] of 3.8 mg/mL. This compound also gave a Threshold toxicity with SupT1 cells of 50 µM. Also, the Antiviral activity result in data set [2] was “+”.

For `N#Cc1cc(Cl)cc(Oc2ccc(Cl)cc2OCC(=O)c2ccc(OCC(=O)O)cc2)c1` [Compound 8a], the IC50 on HIV-1 RT (setting [4]) came to 23.4 ± 1.6 µM. Also, the Solubility in data set [1] (setting [5]) is over 50 mg/mL. The Threshold toxicity in the data set with SupT1 cells is on record as 50 µM.

`Cc1cc(OCC(=O)[O-])ccc1C(=O)COc1cc(Cl)ccc1Oc1cc(Cl)cc(C#N)c1.[K+]` [Compound 8d]: on HIV-1 RT (setting [4]), the IC50 was found to be 4.7 ± 0.7 µM. The compound also registered a Solubility in data set [1] of 14.4 mg/mL. The Threshold toxicity with SupT1 cells came out at 50 µM.

Consider `Cc1cc(C(=O)COc2cc(Cl)ccc2Oc2cc(Cl)cc(C#N)c2)ccc1OCC(=O)[O-].[K+]` [Compound 8e], for which the IC50 on HIV-1 RT (setting [4]) turned out to be 3.07 ± 0.22 µM. The compound further gave a Solubility in data set [1] of 39.9 mg/mL. The Threshold toxicity in the data set with SupT1 cells is listed as 50 µM. In data set [2], the Antiviral activity result is “+”.

For `N#Cc1cc(Cl)cc(Oc2cc(Cl)ccc2OCC(=O)c2ccc(Oc3ccc(OCC(=O)[O-])cc3)cc2)c1.[K+]` [Compound 8f], the half-inhibitory concentration (IC50) on HIV-1 RT (setting [4]) was determined as 1.27 ± 0.05 µM. This compound also registered a Solubility in data set [1] of over 50.0 mg/mL. The same compound had a Threshold toxicity in the data set with SupT1 cells of 5 µM.

The compound `Cc1ccnc2c1NC(=O)c1cccnc1N2C1CC1` [NVP, nevirapine, reference compound] returned a Threshold toxicity in the data set on SupT1 cells of 50 µM. Further, in data set [2] (Human immunodeficiency virus 1, NL43, SUP-T1, read-out: IC50 (infection rate), reference run in parallel), the IC50 amounted to 0.04 µM. Besides, in data set [2], the Antiviral activity result was “+”.

As to `Cc1cc(/C=C/C#N)cc(C)c1Nc1ccnc(Nc2ccc(C#N)cc2)n1` [RPV, rilpivirine, reference compound], the IC50 on HIV-1 RT (setting [4]) was found to be 0.32 ± 0.04 µM. In the data set on SupT1 cells, this compound yielded a Threshold toxicity of 0.5 µM. Also, the Antiviral activity entry in data set [2] was “+”. Besides, the Solubility in data set [3] was 0.00002 ^b g/L.
